Laboratory results taken from ChEMBL document CHEMBL1201862, “PubChem BioAssay data set” (2004).
One block for each molecule: values may come before it. Activity calls are given as the source filed them.

Assays:
[1] = biological target: T1, Heat shock factor protein 1 (Mus musculus, UniProt P38532); experiment: decrease of HSF1-responsive luciferase luminescence – cell-based, NIH3T3, dose retest, confirmation (AID 2382); type: functional;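 further: NIH3T3 fibroblasts with HSF1-driven luciferase reporter stressed by proteasome inhibitor MG132; luminescence from HSF1-driven luciferase expression after 8 hours of MG132 stress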
T1 sequence (P38532 whole entry): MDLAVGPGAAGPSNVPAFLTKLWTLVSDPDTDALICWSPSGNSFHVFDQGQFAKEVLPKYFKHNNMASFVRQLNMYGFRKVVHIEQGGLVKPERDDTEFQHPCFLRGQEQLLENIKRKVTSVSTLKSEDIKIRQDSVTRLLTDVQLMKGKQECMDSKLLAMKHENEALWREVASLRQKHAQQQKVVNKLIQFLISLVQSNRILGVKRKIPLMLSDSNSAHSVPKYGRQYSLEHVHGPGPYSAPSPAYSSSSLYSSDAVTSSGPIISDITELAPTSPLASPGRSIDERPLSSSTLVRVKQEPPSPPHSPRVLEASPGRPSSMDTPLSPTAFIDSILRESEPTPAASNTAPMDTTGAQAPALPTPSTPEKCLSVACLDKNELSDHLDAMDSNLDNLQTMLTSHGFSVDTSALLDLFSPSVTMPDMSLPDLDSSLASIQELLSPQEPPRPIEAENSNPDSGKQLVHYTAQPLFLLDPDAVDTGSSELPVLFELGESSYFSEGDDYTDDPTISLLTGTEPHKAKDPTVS

[2] = Trypanosoma cruzi growth suppression in host cells – NIH3T3 host cells, beta-gal luminescence, confirmation (AID 2044); type: functional, cell-based;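 further: intracellular parasites grown in NIH/3T3 mouse fibroblasts as host cells; luminescent beta-galactosidase reporter signal from transgenic T. cruzi replicating inside host cells; inhibitors lower the luminescence signal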
[3] = NIH3T3 cell viability loss – ATP luminescence, mouse fibroblasts, counter-screen, dose response (AID 2010); type: functional, cell-based;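 further: cells exposed to compound for about 90 hours before reading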
[4] = biological target: Cytochrome P450 2D6 (Homo sapiens, UniProt P10635);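 further: CYP2D6 member of a cytochrome P450 panel assay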
Cytochrome P450 2D6, sequence (P10635 whole entry): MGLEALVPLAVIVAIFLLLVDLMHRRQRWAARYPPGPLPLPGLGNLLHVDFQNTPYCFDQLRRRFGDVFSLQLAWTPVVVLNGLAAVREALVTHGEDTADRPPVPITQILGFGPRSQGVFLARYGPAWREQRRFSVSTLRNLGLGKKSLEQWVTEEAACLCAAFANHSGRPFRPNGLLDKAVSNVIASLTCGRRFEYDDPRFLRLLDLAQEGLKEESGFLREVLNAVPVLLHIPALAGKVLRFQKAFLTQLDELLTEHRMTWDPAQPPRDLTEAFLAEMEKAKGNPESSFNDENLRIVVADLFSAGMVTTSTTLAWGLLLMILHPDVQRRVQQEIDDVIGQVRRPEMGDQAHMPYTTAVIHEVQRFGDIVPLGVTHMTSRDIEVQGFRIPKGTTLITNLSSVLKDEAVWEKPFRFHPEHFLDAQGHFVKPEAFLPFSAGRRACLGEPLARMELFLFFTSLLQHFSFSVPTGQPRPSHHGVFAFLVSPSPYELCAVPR

[5] = biological target: Cytochrome P450 2C19 (Homo sapiens, UniProt P33261); experiment: Cytochrome panel assay with activity outcomes. Panel member name: p450-cyp2c19 Compounds with AC50 equal or less than 10 uM are considered active; type: functional
Cytochrome P450 2C19, sequence (P33261 whole entry): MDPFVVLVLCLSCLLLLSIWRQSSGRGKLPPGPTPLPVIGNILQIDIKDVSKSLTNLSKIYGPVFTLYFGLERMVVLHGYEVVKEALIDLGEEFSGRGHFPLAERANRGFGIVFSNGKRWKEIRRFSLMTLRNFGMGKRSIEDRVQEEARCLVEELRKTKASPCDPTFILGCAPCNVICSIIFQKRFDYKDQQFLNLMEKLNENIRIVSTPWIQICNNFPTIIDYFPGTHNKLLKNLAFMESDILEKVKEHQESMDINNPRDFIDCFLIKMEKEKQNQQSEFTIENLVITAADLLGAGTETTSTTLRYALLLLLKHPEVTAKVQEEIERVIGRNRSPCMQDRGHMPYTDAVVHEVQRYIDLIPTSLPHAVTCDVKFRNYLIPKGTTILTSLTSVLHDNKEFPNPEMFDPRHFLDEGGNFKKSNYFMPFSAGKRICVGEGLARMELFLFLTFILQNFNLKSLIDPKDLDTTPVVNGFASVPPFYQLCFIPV

[6] = biological target: Cytochrome P450 2C9 (Homo sapiens, UniProt P11712)
Cytochrome P450 2C9, sequence (P11712 whole entry): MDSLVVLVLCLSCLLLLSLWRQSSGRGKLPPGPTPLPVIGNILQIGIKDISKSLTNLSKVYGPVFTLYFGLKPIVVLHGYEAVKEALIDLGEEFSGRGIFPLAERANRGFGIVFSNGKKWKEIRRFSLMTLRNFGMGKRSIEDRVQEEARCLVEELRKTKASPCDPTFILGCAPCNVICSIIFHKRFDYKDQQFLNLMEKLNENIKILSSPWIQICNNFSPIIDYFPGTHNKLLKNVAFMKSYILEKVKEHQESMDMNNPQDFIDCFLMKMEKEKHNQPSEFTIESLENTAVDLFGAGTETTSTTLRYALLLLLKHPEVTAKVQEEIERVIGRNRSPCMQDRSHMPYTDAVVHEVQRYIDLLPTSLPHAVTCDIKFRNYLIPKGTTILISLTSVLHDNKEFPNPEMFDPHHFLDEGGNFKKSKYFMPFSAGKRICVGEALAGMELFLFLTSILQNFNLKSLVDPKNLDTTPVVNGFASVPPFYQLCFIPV

[7] = tested on: Streptococcus sp. 'group A'; experiment: Streptococcus pyogenes SK(-)GAS viability under kanamycin – luminescence, BacTiterGlo, confirmation, counter-screen for streptokinase expression inhibitor project, dose response (AID 1900); type: functional, organism-based
[8] = tested on: Streptococcus; experiment: GAS UMAA2166 growth inhibition – luminescence, BacTiterGlo, counter-screen for streptokinase expression inhibitor project, dose response (AID 1915); type: functional, organism-based;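 further: potency for reduction of bacterial viability or growth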
[9] = Luminescence Cell-Based Dose Retest to Confirm Inhibitors of Cancer Stem Cells. [Related pubchem assays (depositor defined):AID2717, AID2721]; type: functional; conditions: Homo sapiens

EC50 [1]: 78 µM (active)
Compound: Nc1nc2n(c1C(=O)c1ccccc1)CCC2

EC50 [1]: > 195 µM (not active)
Compound: O=C(Nc1ccccc1N1CCCC1)c1cccnc1Cl

AC50 [4]: 35.5 µM (inconclusive)
AC50 ([5]; read-out: AC50): 11.2 µM (inconclusive)
Compound: CCC(=O)Nc1ccc(C(=O)OCC(=O)c2ccc(C)c([N+](=O)[O-])c2)cc1

AC50 [4]: 39.8 µM (inconclusive)
Compound: COc1ccccc1CCn1c(=O)c(-c2cccc(F)c2)nc2cncnc21

AC50 [6]: 28.2 µM (inconclusive)
Compound: CCCCCc1nnc(NC(=O)C(=O)OCC)s1

AC50 [4]: 15.8 µM (inconclusive)
Compound: C[C@@H]1C[C@H](OC(=O)[C@@H](O)c2ccccc2)CC(C)(C)N1C

EC50 [1]: > 195 µM (not active)
Compound: O=C(CCNS(=O)(=O)c1cccc2nsnc12)NCc1cccs1

AC50 ([5]; read-out: AC50): 11.2 µM (inconclusive)
Compound: CCOC(=O)C(C(=O)NCc1ccc(C)cc1)c1ncc(C(F)(F)F)cc1Cl (stereo not given)

AC50 [4]: 3.16 µM (inconclusive)
AC50 ([5]; read-out: AC50): 0.794 µM (inconclusive)
Compound: O[C@@H](c1cc([C@@]23C[C@H]4CC[C@@H]2C[C@H](C4)C3)nc2c(Cl)cc(Cl)cc12)[C@@H]1CCCCN1

EC50 [1]: > 195 µM (not active)
Compound: CCN(c1ccccc1)S(=O)(=O)c1ccc(Cl)c(NC(=O)CSc2nnc(C)s2)c1

AC50 [6]: 39.8 µM (inconclusive)
AC50 ([5]; read-out: AC50): 31.6 µM (inconclusive)
Compound: Cc1cc(N)c2ccccc2[n+]1CCCCCCCCCCCCCC[n+]1c(C)cc(N)c2ccccc21

EC50 [1]: > 195 µM (not active)
Compound: CC(=O)c1ccc(NC(=O)C2CCN(S(=O)(=O)c3cccc4cccnc34)CC2)cc1

AC50 [6]: 15.8 µM (inconclusive)
Compound: O=C(CSc1nnc(-c2ccccn2)n1Cc1ccco1)Nc1ccc2c(c1)OCO2

AC50 [4]: 4.47 µM (inconclusive)
Compound: CCn1nccc1C(=O)Nc1nc2ccccc2n1CCN1CCCCC1

AC50 [5]: inconclusive
Compound: Cc1ccnc(NS(=O)(=O)c2ccc(NC(=O)C3CCCNC3=O)cc2)n1 (stereo not given)

AC50 [6]: 39.8 µM (inconclusive)
Compound: C[C@@H](C(=O)Nc1ccc2ccccc2c1)[C@@H]1C[C@@]1(C)[C@@H](NC(=O)c1ccncc1Cl)c1ccccc1

AC50 ([5]; read-out: AC50): 14.1 µM (inconclusive)
Compound: Cc1ccc(CCN2CC(C(=O)NC3CCCC3)CC2=O)cc1 (stereo not given)

The remaining lines, values behind:

Compound: CCOc1ccc(CSC2=NCCN2)cc1Cl
EC50 [2]: 1.1 µM (active)
EC50 [3]: > 60 µM (not active)

Compound: CC(NC(=O)CN=C(S)N(Cc1ccccc1)Cc1cccnc1)c1ccccc1 (stereo not given)
EC50 [2]: 0.805 µM (active)
EC50 [3]: 10.8 µM (active)

Compound: COc1ccccc1C(=O)Nc1ccnn1C1CCN(Cc2cnc(N(C)C)s2)CC1
EC50 [2]: 0.852 µM (active)
EC50 [3]: > 60 µM (not active)

Compound: COc1ccc(N2CCN(c3nc(Nc4ccc(C)c(F)c4)nc(N4CCCC4)n3)CC2)cc1
EC50 [2]: 3.17 µM (active)
EC50 [3]: > 60 µM (not active)

Compound: CN1CCN(NC(=O)c2cn(-c3ccccc3)nc2-c2cccc(Br)c2)CC1
EC50 [2]: 2.81 µM (active)
EC50 [3]: 4.99 µM (active)

Compound: Cc1[nH]n(-c2ccccc2)c(=O)c1/C=N/NC(=O)c1ccccc1F
EC50 [7]: 3.54 µM (active)
EC50 [8]: 6.72 µM (active)

Compound: O=C(NNc1ccccc1Br)C(=O)n1ccc2ccccc21
AC50 [9]: 3.46 µM (active)

Compound: CC(=O)c1ccc(-c2ccc([C@H]3[C@H]4C=CC[C@@H](C)[C@@H]4C(=O)N3Cc3ccccc3)c(F)c2)cc1
AC50 [9]: 5.57 µM (active)

Compound: Cn1c(=O)n(Cc2ccc(F)cc2)c(=O)c2c1nc1n2CCCN1C1CCCCC1
AC50 [9]: 3.33 µM (active)

Compound: CC(=O)OC[C@@H]1O[C@@H](O/N=C2/C[C@@H](O)[C@@H](O)[C@@H]3[C@@H]4C(=O)N(C[C@@H]5CCCO5)C(=O)[C@H]4CC[C@@H]23)[C@H](OC(C)=O)[C@H](OC(C)=O)[C@@H]1OC(C)=O
AC50 [4]: 3.98 µM (inconclusive)

Compound: COc1cccc(CC2(CO)CCCN(Cc3ccc(C)s3)C2)c1 (stereo not given)
EC50 [2]: 0.635 µM (active)
EC50 [3]: > 30 µM (not active)

Compound: CCc1ccc(-c2cc(C(F)(F)F)n3nc(C(=O)Nc4c(C)nn(Cc5ccccc5C)c4C)cc3n2)s1
EC50 [2]: 2.21 µM (active)
EC50 [3]: > 60 µM (inconclusive)

Compound: CC1CC2=C(N=C(S)NC2c2cccc(F)c2)/C(=C/c2cccc(F)c2)C1 (stereo not given)
EC50 [2]: 1.83 µM (active)
EC50 [3]: > 60 µM (inconclusive)

Compound: Nc1nnc(SCC(=O)OCC(=O)NC2CCCCC2)s1
AC50 [9]: > 195 µM (inactive)

Compound: O=S(=O)(NCC(c1cccnc1)N1CCN(Cc2ccccc2)CC1)c1cc(F)ccc1F (stereo not given)
EC50 [2]: 0.677 µM (active)
EC50 [3]: > 60 µM (not active)
